From patent US12240862B2, “Inhibitors of peptidylarginine deiminases” (Gilead Sciences, Inc., priority 2020, dated 2025)

target: T1, human PAD4 (Homo sapiens, UniProt Q9UM07); test: In vitro PAD4 BAEE biochemical assay; conditions: human PAD4, BAEE substrate; 5 nM PAD4, 2 mM calcium chloride, 3 mM BAEE; geometric mean of multiple experiments
T1 construct: human PAD4 (NM_012387), A2P663, was PCR amplified; His-SUMO (N, cleaved yes); made in house; host or cells: E. coli BL21(DE3)
Summary of the method: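 Ammonia release from BAEE deimination monitored by o-phthalaldehyde amine coupling (1 h, 25 °C) after EDTA stop. Final conditions: 5 nM tag-free recombinant human PAD4 (E. coli), 2 mM CaCl2, 3 mM BAEE, pH 7.6 MOPS with DTT; 30 min compound preincubation, then 2 h reaction at 25 °C.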

T1 sequence (Q9UM07 2-663): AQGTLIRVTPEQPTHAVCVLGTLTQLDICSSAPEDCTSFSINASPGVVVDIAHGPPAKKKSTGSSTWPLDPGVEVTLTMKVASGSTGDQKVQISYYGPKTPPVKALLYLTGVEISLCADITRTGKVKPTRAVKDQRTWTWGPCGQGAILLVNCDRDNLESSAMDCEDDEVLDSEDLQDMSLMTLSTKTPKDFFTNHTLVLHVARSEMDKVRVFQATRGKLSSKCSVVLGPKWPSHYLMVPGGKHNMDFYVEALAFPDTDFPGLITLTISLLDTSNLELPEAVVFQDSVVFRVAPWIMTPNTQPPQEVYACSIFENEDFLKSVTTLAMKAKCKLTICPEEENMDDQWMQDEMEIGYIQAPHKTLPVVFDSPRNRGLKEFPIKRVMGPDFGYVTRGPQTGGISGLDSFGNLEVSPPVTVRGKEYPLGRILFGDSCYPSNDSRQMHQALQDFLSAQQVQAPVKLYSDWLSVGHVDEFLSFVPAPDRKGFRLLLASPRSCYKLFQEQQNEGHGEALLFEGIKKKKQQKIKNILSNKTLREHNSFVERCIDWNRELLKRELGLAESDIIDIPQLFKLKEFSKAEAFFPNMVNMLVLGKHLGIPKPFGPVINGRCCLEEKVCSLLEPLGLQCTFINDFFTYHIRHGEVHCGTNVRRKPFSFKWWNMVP

Row | SMILES | IC50 [µM]
1 | COc1cc(C(=O)N2[C@H]3CC[C@@H]2[C@H](N)C3)cc2nc(-c3cc4ccc(-c5cccnc5-c5cncs5)nc4n3CC3CC3)c(C)n12 [Example 567, [(1~{R},2~{R},4~{S})-2-amino-7-azabicyclo [2.2.1]heptan-7-yl]-[2-[1-(cyclopropylmethyl)-6-[2-(1,3-thiazol-5-yl)pyridin-3-yl]pyrrolo[2,3-b]pyridin-2-yl]-5-methoxy-3-methylimidazo[1,2-a]pyridin-7-yl]methanone] | 0.114
2 | COc1cc(C(=O)N2[C@H]3CC[C@@H]2[C@H](N)C3)cc2nc(-c3cc4ccc(C(C)C#N)nc4n3CC3CC3)c(C)n12 (stereo partly shown) [Example 568, 2-[2-[7-[(1~{R},2~{R}, 4~{S})-2-amino-7-azabicyclo[2.2.1]heptane-7-carbonyl]-5-methoxy-3-methylimidazo[1,2-a]pyridin-2-yl]-1-(cyclopropylmethyl)pyrrolo [2,3-b]pyridin-6-yl] propanenitrile] | 0.133
3 | COc1cc(C(=O)N2[C@H]3CC[C@@H]2[C@H](N)C3)cc2nc(-c3cc4ccc(C(O)C(F)(F)F)nc4n3CC3CC3)c(C)n12 (stereo partly shown) [Example 569, [(1~{R},2~{R},4~{S})-2-amino-7-azabicyclo [2.2.1]heptan-7-yl]-[2-[1-(cyclopropylmethyl)-6-(2,2,2-trifluoro-1-hydroxyethyl)pyrrolo [2,3-b]pyridin-2-yl]-5-methoxy-3-methylimidazo[1,2-a]pyridin-7-yl]methanone] | 0.145
4 | COc1cc(C(=O)N2[C@H]3CC[C@@H]2[C@H](N)C3)cc2nc(-c3cc4ccc(C(C)(C)N)nc4n3CC3CC3)c(C)n12 [Example 570, [(1~{R},2~{R},4~{S})-2-amino-7-azabicyclo [2.2.1]heptan-7-yl]-[2-[6-(2-aminopropan-2-yl)-1-(cyclopropylmethyl)pyrrolo [2,3-b]pyridin-2-yl]-5-methoxy-3-methylimidazo[1,2-a]pyridin-7-yl]methanone] | 0.227
5 | COc1cc(C(=O)N2[C@H]3CC[C@@H]2[C@H](N)C3)cc2nc(-c3cc4ccc(C(C)(O)C(C)C)nc4n3CC3CC3)c(C)n12 (stereo partly shown) [Example 571, [(1~{R},2~{R},4~{S})-2-amino-7-azabicyclo [2.2.1]heptan-7-yl]-[2-[1-(cyclopropylmethyl)-6-(2-hydroxy-3-methylbutan-2-yl)pyrrolo[2,3-b]pyridin-2-yl]-5-methoxy-3-methylimidazo[1,2-a]pyridin-7-yl]methanone] | 0.465
6 | CCC(C)(O)c1ccc2cc(-c3nc4cc(C(=O)N5[C@H]6CC[C@@H]5[C@H](N)C6)cc(OC)n4c3C)n(CC3CC3)c2n1 (stereo partly shown) [Example 572, [(1~{R},2~{R},4~{S})-2-amino-7-azabicyclo [2.2.1]heptan-7-yl]-[2-[1-(cyclopropylmethyl)-6-(2-hydroxybutan-2-yl)pyrrolo [2,3-b]pyridin-2-yl]-5-methoxy-3-methylimidazo[1,2-a]pyridin-7-yl]methanone] | 0.152
7 | COc1cc(C(=O)N2[C@H]3CC[C@@H]2[C@H](N)C3)cc2nc(-c3cc4ccc(C(C)(O)c5ccccc5)nc4n3CC3CC3)c(C)n12 (stereo partly shown) [Example 573, [(1~{R},2~{R},4~{S})-2-amino-7-azabicyclo [2.2.1]heptan-7-yl]-[2-[1-(cyclopropylmethyl)-6-(1-hydroxy-1-phenylethyl)pyrrolo[2,3-b]pyridin-2-yl]-5-methoxy-3-methylimidazo[1,2-a]pyridin-7-yl]methanone] | 1
8 | COc1cc(C(=O)N2[C@H]3CC[C@@H]2[C@H](N)C3)cc2nc(-c3cc4ccc(C(C)(C)O)nc4n3CC3CC3)c(C)n12 [Example 574, [(1~{R},2~{R},4~{S})-2-amino-7-azabicyclo [2.2.1]heptan-7-yl]-[2-[1-(cyclopropylmethyl)-6-(2-hydroxypropan-2-yl)pyrrolo [2,3-b]pyridin-2-yl]-5-methoxy-3-methylimidazo[1,2-a]pyridin-7-yl]methanone] | 0.11
9 | COc1cc(C(=O)N2[C@H]3CC[C@@H]2[C@H](N)C3)cc2nc(-c3cc4ccc(-c5cccnc5C)nc4n3CC3CC3)c(C)n12 [Example 575, ((1R,2R,4S)-2-amino-7-azabicyclo[2.2.1]heptan-7-yl)(2-(1-(cyclopropylmethyl)-6-(2-methylpyridin-3-yl)-1H-pyrrolo[2,3-b]pyridin-2-yl)-5-methoxy-3-methylimidazo[1,2-a]pyridin-7-yl)methanone] | 0.13
10 | CCc1ccc2cc(-c3nc4cc(C(=O)N5CCC[C@@H](N)C5)cc(OC)n4c3C3CCC3)n(CC3CC3)c2n1 [Example 576, [(3~{R})-3-aminopiperidin-1-yl]-[3-cyclobutyl-2-[1-(cyclopropylmethyl)-6-ethylpyrrolo[2,3-b]pyridin-2-yl]-5-methoxyimidazo [1,2-a]pyridin-7-yl]methanone] | 2.15
11 | CCc1ccc2cc(-c3nc4cc(C(=O)N5[C@H]6CC[C@@H]5[C@H](N)C6)cc(OC)n4c3C3CCC3)n(CC3CC3)c2n1 [Example 577, [(1~{R},2~{R},4~{S})-2-amino-7-azabicyclo [2.2.1]heptan-7-yl]-[3-cyclobutyl-2-[1-(cyclopropylmethyl)-6-ethylpyrrolo[2,3-b]pyridin-2-yl]-5-methoxyimidazo [1,2-a]pyridin-7-yl]methanone] | 0.996
12 | CCc1ccc2cc(-c3nc4cc(C(=O)N5[C@H]6CC[C@@H]5[C@H](N)C6)cc(OC)n4c3C3CC3)n(CC3CC3)c2n1 [Example 578, [(1~{R},2~{R},4~{S})-2-amino-7-azabicyclo [2.2.1]heptan-7-yl]-[3-cyclopropyl-2-[1-(cyclopropylmethyl)-6-ethylpyrrolo[2,3-b]pyridin-2-yl]-5-methoxyimidazo [1,2-a]pyridin-7-yl]methanone] | 0.346
13 | CCc1ccc2cc(-c3nc4cc(C(=O)N5CC[C@@H](OC)[C@@H](N)C5)cc(OC)n4c3C)n(CC3CC3)c2n1 [Example 579, [(3~{S},4~{R})-3-amino-4-methoxypiperidin-1-yl]-[2-[1-(cyclopropylmethyl)-6-ethylpyrrolo[2,3-b]pyridin-2-yl]-5-methoxy-3-methylimidazo[1,2-a]pyridin-7-yl]methanone] | 0.412
14 | CCc1ccc2cc(-c3nc4cc(C(=O)N5CCCC(NCCO)C5)cc(OC)n4c3C)n(CC3CC3)c2n1 (stereo not shown) [Example 581, [2-[1-(cyclopropylmethyl)-6-ethylpyrrolo[2,3-b]pyridin-2-yl]-5-methoxy-3-methylimidazo[1,2-a]pyridin-7-yl]-[3-(2-hydroxyethylamino)piperidin-1-yl]methanone] | 23
15 | CCc1ccc2cc(-c3nc4cc(C(=O)N5CCC6CCNC6C5)cc(OC)n4c3C)n(CC3CC3)c2n1 (stereo not shown) [Example 583, 1,2,3,3~{a},4,5,7,7~{a}-octahydropyrrolo[2,3-c] pyridin-6-yl-[2-[1-(cyclopropylmethyl)-6-ethylpyrrolo[2,3-b]pyridin-2-yl]-5-methoxy-3-methylimidazo[1,2-a]pyridin-7-yl]methanone] | 0.535
16 | CCc1ccc2cc(-c3nc4cc(C(=O)N5[C@H]6CC[C@@H]5[C@H](N)C6)cc(OC)n4c3C)n(CC3CC3)c2n1 [Example 584, [(1~{R},2~{R},4~{S})-2-amino-7-azabicyclo [2.2.1]heptan-7-yl]-[2-[1-(cyclopropylmethyl)-6-ethylpyrrolo[2,3-b]pyridin-2-yl]-5-methoxy-3-methylimidazo[1,2-a]pyridin-7-yl]methanone] | 0.0845
17 | CCc1ccc2cc(-c3nc4cc(C(=O)N5CCC[C@@H](N)C5)cc(OC)n4c3C3CC3)n(CC3CC3)c2n1 [Example 585, [(3~{R})-3-aminopiperidin-1-yl]-[3-cyclopropyl-2-[1-(cyclopropylmethyl)-6-ethylpyrrolo[2,3-b]pyridin-2-yl]-5-methoxyimidazo [1,2-a]pyridin-7-yl]methanone] | 0.174
18 | CCc1ccc2cc(-c3nc4cc(C(=O)N5CCC[C@@H](N)C5)cc(OC)n4c3C)n(CC3CC3)c2c1F [Example 586, [(3~{R})-3-aminopiperidin-1-yl]-[2-[1-(cyclopropylmethyl)-6-ethyl-7-fluoroindol-2-yl]-5-methoxy-3-methylimidazo [1,2-a]pyridin-7-yl]methanone] | 3.21
19 | CCc1ccc2cc(-c3nc4cc(C(=O)N5C[C@]6(N)CC[C@H]5C6)cc(OC)n4c3C)n(CC3CC3)c2n1 [Example 587, [(1~{S},4~{S})-4-amino-2-azabicyclo[2.2.1]heptan-2-yl]-[2-[1-(cyclopropylmethyl)-6-ethylpyrrolo[2,3-b]pyridin-2-yl]-5-methoxy-3-methylimidazo[1,2-a]pyridin-7-yl]methanone] | 4.46
20 | CCc1ccc2cc(-c3nc4cc(C(=O)N5C[C@@]6(N)CC[C@@H]5C6)cc(OC)n4c3C)n(CC3CC3)c2n1 [Example 588, [(1~{R},4~{R})-4-amino-2-azabicyclo[2.2.1]heptan-2-yl]-[2-[1-(cyclopropylmethyl)-6-ethylpyrrolo[2,3-b]pyridin-2-yl]-5-methoxy-3-methylimidazo[1,2-a]pyridin-7-yl]methanone] | 10.6
21 | CCc1cc2c(cc1F)cc(-c1nc3cc(C(=O)N4CCC[C@@H](N)C4)cc(OC)n3c1C)n2CC1CC1 [Example 589, [(3~{R})-3-aminopiperidin-1-yl]-[2-[1-(cyclopropylmethyl)-6-ethyl-5-fluoroindol-2-yl]-5-methoxy-3-methylimidazo[1,2-a]pyridin-7-yl]methanone] | 2.68
22 | COc1cc(C(=O)N2CCC[C@@H](N)C2)cc2nc(-c3cc4cc(F)c(Cl)cc4n3CC3CC3)c(C)n12 [Example 590, [(3~{R})-3-aminopiperidin-1-yl]-[2-[6-chloro-1-(cyclopropylmethyl)-5-fluoroindol-2-yl]-5-methoxy-3-methylimidazo[1,2-a]pyridin-7-yl]methanone] | 9.82
